Experimental data reported in patent US7199120B2, “Pyrazolo-pyridine derivatives as antiherpes agents” (SmithKline Beecham Corporation, priority 2001, dated 2007).

System: HSV-1
Test: HSV-1 replication in infected Vero 76 cells, viral DNA hybridization capture assay
Assay type: cell-based, herpes simplex virus 1
Settings: Human alphaherpesvirus 1; HSV-1 (MOI=0.001) in Vero 76 cells, 40–48 hours incubation, chemiluminescent detection of HSV DNA
Experimental: Vero 76 cells were maintained in MEM with Earle's salts, L-glutamine, 8% FBS (Hyclone, A-1111-L) and 100 units/mL Penicillin-100 μg/mL Streptomycin. For assay conditions, FBS was reduced to 2%. Cells are seeded into 96-well tissue culture plates at a density of 5×10^4 cells/well after being incubated for 45 min at 37° C. in the presence of HSV-1 or HSV-2 (MOI=0.001). Test compounds are added to the wells and the plates are incubated at 37° C. for 40–48 hours. Cell lysates are prepared as follows: media was removed and replaced with 150 μL/well 0.2 N NaOH with 1% Igepal CA 630 or NP-40. Plates were incubated up to 14 days at room temperature in a humidified chamber to prevent evaporation.
For the detection probe, a gel-purified, digoxigenin-labeled, 710-bp PCR fragment of the HSV UL-15 sequence was utilized. PCR conditions included 0.5 μM primers, 180 μM dTTP, 20 μM dUTP-digoxigenin (Boehringer Mannheim 1558706), 200 μM each of dATP, dCTP, and dGTP, 1×PCR Buffer II (Perkin Elmer), 2.5 mM MgCl2, 0.025 units/μL of AmpliTaq Gold polymerase (Perkin Elmer), and 5 ng of gel-purified HSV DNA per 100 μL Extension conditions were 10 min at 95° C., followed by 30 cycles of 95° C. for 1 min, 55° C. for 30 sec, and 72° C. for 2 min. The amplification was completed with a 10-min incubation at 72° C. Primers were selected to amplify a 728 bp probe spanning a section of the HSV1 UL15 open reading frame (nucleotides 249–977). Single-stranded transcripts were purified with Promega M13 Wizard kits. The final product was mixed 1:1 with a mixture of 6 M GuSCN, 100 mM EDTA and 200 μg/mL herring sperm DNA and stored at 4° C.
The capture DNA plasmid (HSV UL13 region in pUC) was linearized by cutting with Xba I, denatured for 15 min at 95° C. and diluted immediately into Reacti-Bind DNA Coating Solution (Pierce, 17250, diluted 1:1 with TE buffer, pH 8) at 1 ng/μL 75 μL/well were added to Corning (#3922 or 9690) white 96-well plates and incubated at room temperature for at least 4 hrs before washing twice with 300 μL/well 0.2×SSC/0.05% Tween-20 (SSC/T buffer). The plates were then incubated overnight at room temperature with 150 μL/well 0.2 N NaOH, 1% IGEPAL and 10 μg/mL herring sperm DNA.
Twenty-seven (27) μL of cell lysate was combined with 45 μL of hybridization solution (final concentration: 3M GuSCN, 50 mM EDTA, 100 μg/ml salmon sperm DNA, 5× Denhardt's solution, 0.25×APE, and 5 ng of the digoxigenin-labeled detection probe). APE is 1.5 M NH4-acetate, 0.15 M ammonium phosphate monobasic, and 5 mM EDTA adjusted to pH 6.0. Mineral oil (50 μL) was added to prevent evaporation. The hybridization plates were incubated at 95° C. for 10 minutes to denature the DNA, then incubated at 42° C. overnight. The wells were washed 6× with 300 μl/well SSC/T buffer then incubated with 75 μL/well anti-digoxigenin-HRP-conjugated antibody (Boehringer Mannheim 1207733, 1:5000 in TE) for 30 min at room temperature. The wells were washed 6× with […] with PBS/0.05% Tween-20 before 75 μL/well SuperSignal LBA substrate (Pierce) was added. The plates were incubated at room temperature for 30 minutes and chemiluminescence was measured in a Wallac Victor reader.

| SMILES | IC50 [nM] |
| --- | --- |
| CC(C)Nc1cc(-c2nn3c(NC(C)C)cccc3c2-c2ccnc(NC3CC3)n2)ccn1 [Example 17, 3-[2-(Cyclopropylamino)-4-pyrimidinyl]-N-isopropyl-2-[2-(isopropylamino)-4-pyridinyl]pyrazolo[1,5-a]pyridin-7-amine] | 2900 |
| c1ccn2nc(-c3ccnc(NC4CCCC4)n3)c(-c3ccnc(NC4CCCC4)n3)c2c1 [Example 4, N-Cyclopentyl-N-(4-{2-[2-(cyclopentylamino)-4-pyrimidinyl]pyrazolo[1,5-a]pyridin-3-yl]-2-pyrimidinyl)amine] | 3100 |
| CC(C)Nc1cc(-c2nn3c(NC(C)C)cccc3c2-c2ccnc(NC3CCCC3)n2)ccn1 [Example 19, 3-[2-(Cyclopentylamino)-4-pyrimidinyl]-N-isopropyl-2-[2-(isopropylamino)-4-pyridinyl]pyrazolo[1,5-a]pyridin-7-amine] | 700 |
| CC(C)Nc1nccc(-c2nn3c(NC(C)C)cccc3c2-c2ccnc(NC(C)C)n2)n1 [Example 13, N-Isopropyl-2,3-bis[2-(isopropylamino)pyrimidin-4-yl]pyrazolo[1,5-a]pyridin-7-amine] | 3300 |
| CC(C)CNc1nccc(-c2nn3c(NCC(C)C)cccc3c2-c2ccnc(NCC(C)C)n2)n1 [Example 11, N-Isobutyl-2,3-bis[2-(isobutylamino)pyrimidin-4-yl]pyrazolo[1,5-a]pyridin-7-amine] | 1600 |
| CCCCNc1nccc(-c2nn3c(NCCCC)cccc3c2-c2ccnc(NCCCC)n2)n1 [Example 8, N-Butyl-2,3-bis[2-(butylamino)pyrimidin-4-yl]pyrazolo[1,5-a]pyridin-7-amine] | 800 |
| c1ccc(CNc2nccc(-c3nn4c(NCc5ccccc5)cccc4c3-c3ccnc(NCc4ccccc4)n3)n2)cc1 [Example 12, N-Benzyl-2,3-bis[2-(benzylamino)pyrimidin-4-yl]pyrazolo[1,5-a]pyridin-7-amine] | 36000 |
| c1cc(NC2CC2)n2nc(-c3ccnc(NC4CC4)n3)c(-c3ccnc(NC4CC4)n3)c2c1 [Example 9, N-Cyclopropyl-2,3-bis[2-(cyclopropylamino)pyrimidin-4-yl]pyrazolo[1,5-a]pyridin-7-amine] | 23000 |
| c1cc(N2CCOCC2)n2nc(-c3ccnc(N4CCOCC4)n3)c(-c3ccnc(N4CCOCC4)n3)c2c1 [Example 10] | 33000 |

Other lines, results leading:

| IC50 [nM] | SMILES |
| --- | --- |
| 1700 | Cc1nc(-c2nn3c(NC4CCCC4)cccc3c2-c2ccnc(NC3CCCC3)c2)cs1 [Example 28, N-Cyclopentyl-3-[2-(cyclopentylamino)-4-pyridinyl]-2-(2-methyl-1,3-thiazol-4-yl)pyrazolo[1,5-a]pyridin-7-amine] |
| 500 | c1coc(-c2nn3c(NC4CCCC4)cccc3c2-c2ccnc(NC3CCCC3)c2)c1 [Example 21, N-Cyclopentyl-3-[2-(cyclopentylamino)-4-pyridinyl]-2-(2-furyl)pyrazolo[1,5-a]pyridin-7-amine] |
| 800 | Cc1ccoc1-c1nn2c(NC3CCCC3)cccc2c1-c1ccnc(NC2CC2)n1 [Example 23, N-Cyclopentyl-3-[2-(cyclopropylamino)-4-pyrimidinyl]-2-(3-methyl-2-furyl)pyrazolo[1,5-a]pyridin-7-amine] |
| 500 | CC(C)Nc1cc(-c2nn3c(NC4CCCC4)cccc3c2-c2ccnc(NC3CCCC3)n2)ccn1 [Example 20, N-Cyclopentyl-3-[2-(cyclopentylamino)-4-pyrimidinyl]-2-[2-(isopropylamino)-4-pyridinyl]pyrazolo[1,5-a]pyridin-7-amine] |
| 1500 | c1cc(NC2CCCC2)n2nc(-c3ccncc3)c(-c3ccnc(NC4CCCC4)n3)c2c1 [Example 1, N-Cyclopentyl-3-[2-(cyclopentylamino)-4-pyrimidinyl]-2-(4-pyridinyl)pyrazolo[1,5-a]pyridin-7-amine] |
| 200 | Cc1ccoc1-c1nn2c(NC3CCCC3)cccc2c1-c1ccnc(NC2CCCC2)n1 [Example 22, N-Cyclopentyl-3-[2-(cyclopentylamino)-4-pyrimidinyl]-2-(3-methyl-2-furyl)pyrazolo[1,5-a]pyridin-7-amine] |
| 1000 | CC(C)Nc1nccc(-c2c(-c3ccnc(NC4CCCC4)c3)nn3c(NC4CCCC4)cccc23)n1 [Example 18, N-Cyclopentyl-2-[2-(cyclopentylamino)-4-pyridinyl]-3-[2-(isopropylamino)-4-pyrimidinyl]pyrazolo[1,5-a]pyridin-7-amine] |
| 400 | c1cc(NC2CCCC2)n2nc(-c3ccnc(NC4CCCC4)n3)c(-c3ccnc(NC4CCCC4)n3)c2c1 [Example 6, N-Cyclopentyl-2,3-bis[2-(cyclopentylamino)-4-pyrimidinyl]pyrazolo[1,5-a]pyridin-7-amine] |
| 500 | Brc1ccc(-c2nn3c(NC4CCCC4)cccc3c2-c2ccnc(NC3CCCC3)n2)o1 [Example 27, 2-(5-Bromo-2-furyl)-N-cyclopentyl-3-[2-(cyclopentylamino)-4-pyrimidinyl]pyrazolo[1,5-a]pyridin-7-amine] |
| 5000 | Cc1ccoc1-c1nn2c(NC3CC3)cccc2c1-c1ccnc(NC2CC2)n1 [Example 24, N-Cyclopropyl-3-[2-(cyclopropylamino)-4-pyrimidinyl]-2-(3-methyl-2-furyl)pyrazolo[1,5-a]pyridin-7-amine] |
| 600 | c1cncc(-c2nn3c(NC4CCCC4)cccc3c2-c2ccnc(NC3CCCC3)n2)c1 [Example 3, N-cyclopentyl-3-[2-(cyclopentylamino)-4-pyrimidinyl]-2-(3-pyridinyl)pyrazolo[1,5-a]pyridin-7-amine] |
| 1400 | c1coc(-c2nn3c(NC4CC4)cccc3c2-c2ccnc(NC3CCCC3)n2)c1 [Example 26, 3-[2-(Cyclopentylamino)-4-pyrimidinyl]-N-cyclopropyl-2-(2-furyl)pyrazolo[1,5-a]pyridin-7-amine] |
| 500 | c1coc(-c2nn3c(NC4CCCC4)cccc3c2-c2ccnc(NC3CCCC3)n2)c1 [Example 25, N-Cyclopentyl-3-[2-(cyclopentylamino)-4-pyrimidinyl]-2-(2-furyl)pyrazolo[1,5-a]pyridin-7-amine] |
